In patent US20030215462A1, “Use of UGT inhibitors to increase bioavailability” (priority 2001, published 2003):
Where “and” joins values, the source holds several entries; their conditions need not be identical. Identical values can stand only once.

Columns and labels:
Assay type in all cases: biochemical
[1] = tested on: UGT enzymes of pooled human jejunum microsomes; experiment: Inhibition of raloxifene glucuronidation (G1, G2) in pooled human jejunum microsomes; details: jejunum HJ61; inhibitor 50 μM
Protocol: (§1) Compounds were eluted using a binary solvent gradient system. […] Solvent B was methanol. […] Detection was at 280 nm.
Standardized incubations utilized […] microsomal protein, 1 mM UDPGA and a 30 min incubation time.

[2] = tested on: UGT enzymes of pooled human jejunum microsomes; experiment: Inhibition of 2ME2 glucuronidation (MG1) in pooled human jejunum microsomes; details: jejunum HJ61, 2ME2 50 μM
Text: (§2) Compounds were eluted using a binary solvent gradient system where solvent A was dilute phosphoric acid (pH 3) and solvent B was 80:20 acetonitrile-methanol. […] Detection was at 280 nm.

[3] = tested on: T1, UGT enzymes of human liver microsomes; experiment: Inhibition of 7-HFC glucuronidation in human liver microsomes; details: for % of control metabolism (SD, n = 3), 7-HFC glucuronidation: 7-HFC 50 μM, human liver microsomes 100 μg/ml, 15 min
T1 construct: percentage of control metabolism, 7-HFC glucuronidation; percentage of control metabolism, 7-HFC glucuronidation

[4] = tested on: UGT enzymes of human liver microsomes; experiment: Inhibition of raloxifene glucuronidation (G1, G2) in human liver microsomes; details: for % of control metabolism (SD, n = 3), raloxifene glucuronide G1 / % of control metabolism (SD, n = 3), raloxifene glucuronide G2: human liver microsomes 250 μg/ml, 15 min
Text: as §1

[5] = tested on: UGT enzymes of pooled human jejunum microsomes; experiment: Inhibition of estradiol (E2) glucuronidation in pooled human jejunum microsomes; details: jejunum HJ61; E2 50 μM; inhibitor 25 μM
Text: as §2

[6] = inhibitor 2 μM, raloxifene 50 μM
[7] = inhibitor 5 μM, raloxifene 50 μM
[8] = inhibitor 10 μM, raloxifene 50 μM
[9] = inhibitor 25 μM, raloxifene 50 μM
[10] = inhibitor 50 μM, raloxifene 50 μM
[11] = inhibitor 100 μM, raloxifene 50 μM
[12] = inhibitor 500 μM, raloxifene 50 μM
[13] = liver lot 032101, inhibitor 50 μM
[14] = liver lot 062101, inhibitor 50 μM
[15] = liver lot 083000, inhibitor 50 μM
[16] = raloxifene 50 μM, inhibitor 10 μM
[17] = raloxifene 50 μM, inhibitor 25 μM
[18] = raloxifene 50 μM, inhibitor 50 μM
[19] = raloxifene 50 μM, inhibitor 100 μM

With `O=c1c(O)c(-c2ccc(O)c(O)c2)oc2cc(O)cc(O)c12` [Quercetin] the “% of control metabolism, raloxifene G1” value [1] was 25 (1) %, the “% of control metabolism, raloxifene G2” value [1] was 37 (2) % and the “residual metabolism (% of control), 2ME2 MG1” value ([2]; inhibitor 25 μM) was 56 (2) %. The “residual metabolism (% of control), 2ME2 MG1” value ([2]; inhibitor 50 μM) was 44 (2) %, the “residual metabolism (% of control), 2ME2 MG1” value ([2]; inhibitor 100 μM) was 19 (1) % and the “percentage of control metabolism, 7-HFC glucuronidation” value (“percentage of control metabolism” below) ([3]; inhibitor 100 μM) was 58 (1) %. The “% of control metabolism (SD, n = 3), 7-HFC glucuronidation” value ([3]; inhibitor 100 μM) was 58 (1) %, the “percentage of control metabolism” value ([3]; inhibitor 200 μM) was 53 (1) % and the “% of control metabolism (SD, n = 3), 7-HFC glucuronidation” value ([3]; inhibitor 200 μM) was 53 (1) %. The “percentage of control metabolism” value ([3]; inhibitor 500 μM) was 52 (1) %, the “% of control metabolism (SD, n = 3), 7-HFC glucuronidation” value ([3]; inhibitor 500 μM) was 52 (1), % and 62 (1) % and the “% of control metabolism (SD, n = 3), raloxifene glucuronide G1” value [4, 6] was 82 (6) %. For the same compound, the “% of control metabolism (SD, n = 3), raloxifene glucuronide G1” value [4, 7] was 69 (1) %, the “% of control metabolism (SD, n = 3), raloxifene glucuronide G1” value [4, 8] was 48 (1) % and the “% of control metabolism (SD, n = 3), raloxifene glucuronide G1” value [4, 9] was 18 (1) %. The “% of control metabolism (SD, n = 3), raloxifene glucuronide G1” value [4, 10] was 8 (1) %, the “% of control metabolism (SD, n = 3), raloxifene glucuronide G1” value [4, 11] was 6 (2) % and the “% of control metabolism (SD, n = 3), raloxifene glucuronide G1” value [4, 12] was 0 (0) %. The “% of control metabolism (SD, n = 3), raloxifene glucuronide G2” value [4, 6] was 78 (3) %, the “% of control metabolism (SD, n = 3), raloxifene glucuronide G2” value [4, 7] was 67 (2) % and the “% of control metabolism (SD, n = 3), raloxifene glucuronide G2” value [4, 8] was 50 (1) %. The “% of control metabolism (SD, n = 3), raloxifene glucuronide G2” value [4, 9] was 25 (1) %, the “% of control metabolism (SD, n = 3), raloxifene glucuronide G2” value [4, 10] was 15 (1) % and the “% of control metabolism (SD, n = 3), raloxifene glucuronide G2” value [4, 11] was 13 (2) %. For the same compound, the “% of control metabolism (SD, n = 3), raloxifene glucuronide G2” value [4, 12] was 0 (0) %, the “% of control metabolism, raloxifene G1” value [4, 13] was 25 (1) % and the “% of control metabolism, raloxifene G2” value [4, 13] was 35 (1) %. For the same compound, the “% of control metabolism, raloxifene G1” value [4, 14] was 34 (3) %, the “% of control metabolism, raloxifene G2” value [4, 14] was 35 (3) % and the “% of control metabolism, raloxifene G1” value [4, 15] was 8 (1) %. For the same compound, the “% of control metabolism, raloxifene G2” value [4, 15] was 15 (1) %, the “% of control metabolism, raloxifene G1” value [4, 16] was 48 (1) % and the “% of control metabolism, raloxifene G2” value [4, 16] was 50 (1) %. The “% of control metabolism, raloxifene G1” value [4, 17] was 18 (1) %, the “% of control metabolism, raloxifene G2” value [4, 17] was 25 (1) % and the “% of control metabolism, raloxifene G1” value [4, 18] was 8 (1) %. For the same compound, the “% of control metabolism, raloxifene G2” value [4, 18] was 15 (1) %, the “% of control metabolism, raloxifene G1” value [4, 19] was 6 (2) % and the “% of control metabolism, raloxifene G2” value [4, 19] was 13 (2) %. The “residual metabolism (% of control), E2-3-β-D-glucuronide” value [5] was 44 (5) %.
